The values that follow come from article PMC4101055 (Antiviral research, 2014).

Entries after “also recorded” stand apart in the source; their conditions may differ.

In data set [1] the target is recombinant genotype D HBV RNaseH (Hepatitis B virus genotype D subtype ayw, UniProt P03156). The experiment in a line: Oligonucleotide-directed RNA cleavage assay, HBV genotype D RNaseH. In kind it is biochemical. The settings on record: for activity against the HBV RNaseH (in words): genotype D and C enzymes, up to 60 µM.
recombinant genotype D HBV RNaseH, sequence (P03156 671-832): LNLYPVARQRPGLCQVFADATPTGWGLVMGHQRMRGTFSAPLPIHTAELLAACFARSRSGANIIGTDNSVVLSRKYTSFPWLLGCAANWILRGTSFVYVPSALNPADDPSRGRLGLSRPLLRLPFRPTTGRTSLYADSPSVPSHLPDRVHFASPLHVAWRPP
Another data set has as its target genotype C HBV RNaseH (Hepatitis B virus, UniProt P12933). Description: Oligonucleotide-directed RNA cleavage assay, HBV genotype C RNaseH. The class given is biochemical. The settings on record: read-out: Genotype C IC50; average ± SD, three or four independent assays.
The target of a further data set is E. coli RNaseH (Escherichia coli, UniProt P0A7Y4). Description: Oligonucleotide-directed cleavage assay with E. coli RNaseH. The class given is biochemical. The conditions noted are these: identical conditions to the HBV RNaseH assay.
E. coli RNaseH, sequence (P0A7Y4 whole entry): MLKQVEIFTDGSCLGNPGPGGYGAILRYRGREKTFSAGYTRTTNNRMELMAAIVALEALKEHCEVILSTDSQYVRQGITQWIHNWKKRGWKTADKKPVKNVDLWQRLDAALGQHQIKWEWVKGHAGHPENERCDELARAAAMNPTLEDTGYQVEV
In data set [2] the test system is HBV genotype D replication in HepDES19 cells. Description: HBV replication assay in HepDES19 cells. The class given is cell-based, Hepatitis B virus. The settings on record: same samples as the EC50 assay.
Another data set has as its system HepDES19 cells. Description: MTT cytotoxicity assay. In kind it is cell-based, human. The settings on record: read-out: Cytotoxicity CC50, MTT, 3 days treatment. (Tetrazolium dyes change colour on reduction, which living cells bring about.)
Another data set relates to HIV RNaseH. The settings on record: read-out: IC50 against the HIV RNaseH; ref Billamboz et al., 2011b; cited from earlier work.
For a further data set, the system named is HBV replication. The conditions noted are these: read-out: EC50 against HBV replication; ref Hu et al., 2013; cited from earlier work.

genotype C HBV RNaseH, sequence (P12933 682-843): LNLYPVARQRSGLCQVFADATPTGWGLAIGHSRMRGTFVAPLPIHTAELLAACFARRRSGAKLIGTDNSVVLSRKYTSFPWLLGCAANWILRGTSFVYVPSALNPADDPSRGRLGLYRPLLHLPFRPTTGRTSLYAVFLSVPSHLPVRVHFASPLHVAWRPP

Turning to `O=C1Cc2ccccc2C(=O)N1O` [Compound 1, 2-hydroxyisoquinoline-1,3(2H,4H)-dione], the IC50 in data set [1] worked out at 28.1 ± 9.7 µM; on genotype C HBV RNaseH, 30.4 ± 12.9 µM. Moreover, the “Effect on E. coli RNaseH activity” value at E. coli RNaseH is “not affected; also recorded: inactive”. For the same compound, in data set [2], the “Accumulation of minus-polarity HBV DNA strand” value is “not suppressed”. Also, in the data set with HepDES19 cells, the half-maximal cytotoxic concentration (CC50) worked out at 74.7 ± 24 µM.

Consider `COC(=O)C1C(=O)N(O)C(=O)c2ccccc21` (stereo not shown) [Compound 81, 2-hydroxy-4-methoxycarbonylisoquinoline-1,3(2H,4H)-dione], for which the “activity against the HBV RNaseH (in words)” value (from here on “activity … (in words)”) in data set [1] is given as “negligible activity”. In addition, the IC50 in the data set with HIV RNaseH was 0.061 µM.

For the compound `CC(C)c1ccc(O)c(=O)c(O)c1` [Compound 46, β-thujaplicinol], in the data set with HBV replication, the half-maximal effective concentration (EC50) was around 5 µM.

In the case of `O=C1CCC(=O)N1O` [Compound 139], the “activity … (in words)” value in data set [1] was “inactivity”.

As to `O=C1c2ccccc2C(=O)N1O` [Compound 138], the “activity … (in words)” value in data set [1] is listed as “inactivity”.

The term IC50 denotes the concentration at which inhibition is half-maximal. Broadly, the CC50 is the concentration that lowers cell viability or growth by half. A word on the EC50: it is the midpoint of the concentration-response curve.
